Earlier results on two compounds are cited in patent US8691277B2, “Long acting sustained-release formulation containing dopamine receptor agonist and the preparation method thereof” (Shandong Luye Pharmaceutical Co., Ltd., priority 2004, dated 2014).

For data set [1] the following is noted: in vivo.
For data set [2] the following is noted: in vivo, po.

Regarding `CCCN[C@H]1CCc2nc(N)sc2C1` [pramipexole], the half-life entry in data set [1] is “only a couple of hours”.

On to `CCCN(CCc1cccs1)[C@H]1CCc2c(O)cccc2C1` [rotigotine], for which the half-life result in data set [1] is on record as “only a couple of hours”. The bioavailability in data set [2] is 1-5%.
